The results in this text go back to BindingDB's records for doi:10.1016/j.ejmech.2019.111726 (Jinan University, 2019).

Data set [1] in a line: Reversal of P-gp mediated multidrug resistance in human HepG2/DOX cells assessed as doxorubicin IC50 at 10 uM measured within 48 hrs by MTT assay (Rvb = 69.3 +/- 3.9 uM).
Data set [2] can be described thus: Reversal of P-gp mediated multidrug resistance in human MCF7/ADM cells assessed as doxorubicin IC50 at 10 uM measured within 48 hrs by MTT assay (Rvb = 151.7 +/- 5 uM).
The nature of data set [3]: Reversal of P-gp mediated multidrug resistance in human MCF7/ADM cells assessed as doxorubicin IC50 at 5 uM measured within 48 hrs by MTT assay (Rvb = 151.7 +/- 5 uM). (In general: Formazan colour is commonly taken as a measure of viable cells.)
A short description of data set [4]: Reversal of P-gp mediated multidrug resistance in human HepG2/DOX cells assessed as doxorubicin IC50 at 5 uM measured within 48 hrs by MTT assay (Rvb = 69.3 +/- 3.9 uM).

Broadly, the IC50 is the concentration needed to halve the response being measured. On to `CCCN(C(=O)CCCCCCC(=O)N(CCC)[C@H]1CC2=CC(=O)O[C@]23C[C@H]1N1CCCC[C@H]13)[C@H]1CC2=CC(=O)O[C@]23C[C@H]1N1CCCC[C@H]13`, for which the IC50 in data set [1] turned out to be 0.3 µM; in data set [2], 1.2 µM; in data set [3] it was 14.6 µM; in data set [4], 1.4 µM.
